From patent US10053485B2, “Cytotoxic agents that preferentially target leukemia inhibitory factor (LIF) for the treatment of malignancies and as new contraceptive agents” (Evestra, Inc., priority 2015, dated 2018)

Key:
RXF 393 = assay: NCI-60 screen, Renal Cancer panel; type: cell-based; conditions: Homo sapiens, RXF 393, 48 h
SK-MEL-2 = assay: NCI-60 screen, Melanoma panel; type: cell-based; conditions: Homo sapiens, SK-MEL-2, 48 h
MDA-MB-435 = assay: NCI-60 screen, Melanoma panel; type: cell-based; conditions: Homo sapiens, MDA-MB-435, 48 h
LNCaP (AR+ Prostate) = assay: Short term (72 h) cytotoxicity assay; type: cell-based
MDA-MB-468 = assay: NCI-60 screen, Breast Cancer panel; type: cell-based; conditions: Homo sapiens, MDA-MB-468, 48 h
Procedure: EC 330 was also tested using the NCI-60 Screening Methodology. The human tumor cell lines of the cancer screening panel are grown in RPMI 1640 medium containing 5% fetal bovine serum and 2 mM L-glutamine. For a typical screening experiment, cells are inoculated into 96 well microtiter plates in 100 μL at plating densities ranging from 5,000 to 40,000 cells/well depending on the doubling time of individual cell lines. After cell inoculation, the microtiter plates are incubated at 37° C., 5% CO2, 95% air and 100% relative humidity for 24 h prior to addition of experimental drugs. […]
Following drug addition, the plates are incubated for an additional 48 h at 37° C., 5% CO2, 95% air, and 100% relative humidity. […] Bound stain is subsequently solubilized with 10 mM trizma base, and the absorbance is read on an automated plate reader at a wavelength of 515 nm. […] Using the seven absorbance measurements [time zero, (Tz), control growth, (C), and test growth in the presence of drug at the five concentration levels (Ti)], the percentage growth is calculated at each of the drug concentrations levels. Percentage growth inhibition is calculated as: [(Ti−Tz)/(C−Tz)]×100 for concentrations for which Ti>/=Tz [(Ti−Tz)/Tz]×100 for concentrations for which Ti<Tz.
Three dose response parameters are calculated for each experimental agent. […]

ACHN = assay: NCI-60 screen, Renal Cancer panel; type: cell-based; conditions: Homo sapiens, 48 h
M14 = assay: NCI-60 screen, Melanoma panel; type: cell-based; conditions: Homo sapiens, M14, 48 h
[1] = system: MCF-7 (ER+ Breast Cancer); assay: Short term (72 h) cytotoxicity assay; type: cell-based; conditions: Homo sapiens, MCF7; MCF-7, 72 h cytotoxicity
HCC-2998 = assay: NCI-60 screen, Colon Cancer panel; type: cell-based; conditions: Homo sapiens, HCC 2998, 48 h
[2] = system: various cancer cells lines; assay: Cytotoxicity assays in various cancer cell lines; type: cell-based; conditions: in words
Procedure: Briefly, 5×10^3 cells were seeded in 96-well plates and incubated with compounds (0.0001-10 μmol/L) or dimethyl sulfoxide (DMSO; 0.02% v/v) for 24, 48, and 72 hours at 37° C. and cell viability was measured using a Fluoroscan plate reader.

786-0 = assay: NCI-60 screen, Renal Cancer panel; type: cell-based; conditions: Homo sapiens, 786-0, 48 h
DU-145 = assay: NCI-60 screen, Prostate Cancer panel; type: cell-based; conditions: Homo sapiens, DU-145, 48 h, read-out: GI50 (log10GI50) (converted)
U251 (Glioma) = assay: Short term (72 h) cytotoxicity assay; type: cell-based, human; conditions: Homo sapiens, U-251; U251, 72 h cytotoxicity
MDA-MB-231 (TNBC cells) = assay: Short term (72 h) cytotoxicity assay; type: cell-based; conditions: Homo sapiens; MDA-MB-231, 72 h cytotoxicity
BT-549 = assay: NCI-60 screen, Breast Cancer panel; type: cell-based; conditions: Homo sapiens, BT-549, 48 h
CCRF-CEM = assay: NCI-60 screen, Leukemia panel; type: cell-based; conditions: Homo sapiens, 48 h
[3] = read-out: GI50 (log10GI50) (converted)
[4] = read-out: LC50 (log10LC50) (converted)

C#CC(F)(F)[C@]1(O)CCC2C3CCC4=CC(=O)CCC4=C3C(c3ccc(C4CC4)cc3)C[C@@]21C (stereo partly drawn) [EC330, 17α-(1,1-difluoro-2-propyn-1-yl)-17β-hydroxy-11β-[4-p-(cyclopropyl)phenyl]estra-4,9-dien-3-one]
GI50 (RXF 393; [3]): 1070 nM
CC50 (RXF 393; [4]): > 100000 nM
GI50 (SK-MEL-2; [3]): 2140 nM
CC50 (SK-MEL-2; [4]): 30200 nM
GI50 (MDA-MB-435; [3]): 1860 nM
CC50 (MDA-MB-435; [4]): > 100000 nM
IC50 (LNCaP (AR+ Prostate)): 53 nM
CC50 (MDA-MB-468; [4]): 50100 nM
GI50 (MDA-MB-468; SRB, read-out: GI50 (log10GI50) (converted)): 204 nM
GI50 (ACHN; [3]): 1510 nM
CC50 (ACHN; [4]): > 100000 nM
GI50 (M14; [3]): 2750 nM
CC50 (M14; [4]): > 100000 nM
IC50 [1]: 100 nM
GI50 (HCC-2998; [3]): 2950 nM
CC50 (HCC-2998; [4]): > 100000 nM
IC50's in cytotoxicity assays [2]: low nanomolar
GI50 (786-0; [3]): < 10 nM
CC50 (786-0; [4]): < 10 nM
GI50 (DU-145): 1910 nM
IC50 (U251 (Glioma)): 20 nM
IC50 (MDA-MB-231 (TNBC cells)): 34 nM
GI50 (BT-549; [3]): 2090 nM
CC50 (BT-549; [4]): > 100000 nM
GI50 (CCRF-CEM; [3]): < 10 nM
CC50 (CCRF-CEM; [4]): < 10 nM
